Experimental data as given in patent US9481688B2, “(Thieno[2,3-b][1,5]benzoxazepin-4-yl)piperazin-1-yl compounds as dual activity H1 inverse agonists/5-HT2A antagonists” (Eli Lilly and Company, priority 2011, dated 2016).
Counter-ions that a name gives are not always drawn.

Columns and labels:
5-HT2B [1] = target: T1, 5-HT2B (Homo sapiens (Human), UniProt P41595); experiment: 5-HT2B agonist functional activity; type: biochemical
From the text: (§1) Further, the compounds of the invention may be tested in binding assays and functional activity assays by well known methods for other physiologically important receptors such as, but not limited to, the hERG channel, other serotonin receptors (specifically 5-HT1B, 5-HT1D, receptors, lack of agonist activity at 5-HT2B receptors, 5-HT2C, 5-HT5, 5-HT6, and 5-HT7 receptors), dopaminergic receptors (specifically D1, D2, and D3), GABAA receptors, adrenergic receptors and monoamine transporters.

5-HT2A Receptor [2] = target: 5-HT2A Receptor (Rattus norvegicus (Rat), UniProt P14842); experiment: 5-HT2A receptor occupancy in vivo (MDL 100907 tracer); conditions: oral gavage, 1 hr. before tracer
From the text: (§2) J Neurosci Methods. […] Recording Environment. […] Relative humidity averages approximately 50%. […] Study Design and Dosing. […] Data Collection. […] Statistical Analysis.

Adrenergic alpha2B = Adrenergic alpha2B (Homo sapiens (Human), UniProt P18089); experiment: Adrenergic alpha2B binding
From the text: as §1

Dopamine D2 = Dopamine D2 (Homo sapiens (Human), UniProt P14416); experiment: Dopamine D2 binding; conditions: dihydrochloride
From the text: as §1

native GABAA receptors = experiment: GABAA antagonism using native receptors in primary neuronal cultures (FLIPR calcium flux); type: cell-based, rat; conditions: against 10 μM GABA
Method: Activity of compounds on native GABAA receptors is evaluated by monitoring calcium fluxes using a 96 well format FLIPR® system (Fluorometric Imaging Plate Reader (FLIPR®, Molecular Devices). Briefly, cortical embryonic neurons are dissociated from E18 rat embryos and plated at optimum density into black-walled, transparent bottom poly-D-lysine coated 96-well FLIPR® plates. After loading the cells with a calcium sensitive dye (Fluo4-AM, Molecular Devices), the cells are bathed in a solution containing low chloride (chloride replaced by gluconate). Under these conditions activation of GABAA receptors causes an efflux of chloride ions (in the direction of the chemical gradient), which results in membrane depolarization and consequently activation of voltage gated calcium channels (VGCCs). Calcium influx through VGCCs is recorded and analysed offline using the FLIPR® system. For a pharmacological validation of the assay, concentration response curves (CRC) are recorded for the standard agonist (GABA) and standard antagonist (Gabazine). […]
The antagonist effects of compounds are quantified using 10-point dose response curves by comparing the peak fluorescent responses to the agonist GABA in the presence and absence of compound. […] Antagonist effects are calculated as a percent of the assay window. […]

Adrenergic alpha2C = Adrenergic alpha2C (Homo sapiens (Human), UniProt P18825); experiment: Adrenergic alpha2C binding
From the text: as §1

[3] = target: recombinant 5-HT2C receptor (human) (Homo sapiens (Human), UniProt P28335); experiment: 5-HT2C competition binding assay ([125I]-DOI, SPA); conditions: dihydrochloride
Method: [^125I]-(±)DOI binding experiments are carried out in SPA 96-well format. Membranes used in this assay are prepared from AV-12 cells stably expressing recombinant 5-HT2C receptor (human). The incubation is initiated by the addition of a mixture of WGA PVT SPA beads (0.5 mg/well, Perkin Elmer (MA, USA), RPNQ0001) and 2.5 μg membranes to assay buffer (50 mM Tris-HCl, 10 mM MgCl2, 0.5 mM EDTA, 10 μM pargyline, 0.1% ascorbic acid, pH7.4) containing 0.2 nM [[^125I]-(±)DOI and varying concentrations of the test compound (10 point concentration response curves). Non-specific binding is determined in the presence of 20 μM 1-(1-Naphthyl) piperazine. Samples are incubated for 4 hr. at room temperature (22° C.) and then read in a Microbeta Trilux.
Curves are evaluated using a 4-parameter logistic nonlinear equation to obtain the concentration of competitor causing 50% inhibition of radioligand binding (IC50). Equilibrium dissociation constants (Ki) are calculated according to the equation Ki=IC50/(1+L/Kd), where L equals the concentration of radioligand used in the experiment and Kd equals the equilibrium dissociation constant of the radioligand for the receptor, determined from standard saturation analysis or homologous competition experiments. […]

5-HT2B [4] = target: T1, 5-HT2B; experiment: 5-HT2B antagonist functional activity; type: biochemical
From the text: as §1

Wistar rats = experiment: Sleep and behavioral monitoring in rats (EEG, EMG, motion); conditions: for Rebound Insomnia, Adj. Mean: NREM + REM sleep in 7th-9th hours post-treatment; for Rebound Insomnia, Adj. Mean / REM inhibition, Adj. Mean / Cumulative NREM sleep, Adj. Mean / Cumulative Total sleep, Adj. Mean / Locomotor Activity Intensity, Adj. Mean: difference from vehicle; for REM inhibition, Adj. Mean: REM sleep in first 12 hr. post-treatment; for Average Sleep Bout, Adj. Mean / Longest Sleep Bout, Adj. Mean / Cumulative NREM sleep, Adj. Mean / Cumulative Total sleep, Adj. Mean / Locomotor Activity Intensity, Adj. Mean: first 6 hr. post-treatment
Adrenergic alpha2A = Adrenergic alpha2A (Homo sapiens (Human), UniProt P08913); experiment: Adrenergic alpha2A binding
From the text: as §1

5-HT2A receptor [5] = target: 5-HT2A receptor (Mus musculus (Mouse), UniProt P35363); experiment: Inhibition of DOI induced headshake activity; type: in vivo; conditions: 10 mg/kg PO, mice, 60 min. pre-treatment, read-out: inhibition of DOI induced headshake response
From the text: as §2

[6] = rat, PO, 6 hr. after treatment, 4 parameter logistic regression

T1 sequence (P41595 whole entry, species assumed): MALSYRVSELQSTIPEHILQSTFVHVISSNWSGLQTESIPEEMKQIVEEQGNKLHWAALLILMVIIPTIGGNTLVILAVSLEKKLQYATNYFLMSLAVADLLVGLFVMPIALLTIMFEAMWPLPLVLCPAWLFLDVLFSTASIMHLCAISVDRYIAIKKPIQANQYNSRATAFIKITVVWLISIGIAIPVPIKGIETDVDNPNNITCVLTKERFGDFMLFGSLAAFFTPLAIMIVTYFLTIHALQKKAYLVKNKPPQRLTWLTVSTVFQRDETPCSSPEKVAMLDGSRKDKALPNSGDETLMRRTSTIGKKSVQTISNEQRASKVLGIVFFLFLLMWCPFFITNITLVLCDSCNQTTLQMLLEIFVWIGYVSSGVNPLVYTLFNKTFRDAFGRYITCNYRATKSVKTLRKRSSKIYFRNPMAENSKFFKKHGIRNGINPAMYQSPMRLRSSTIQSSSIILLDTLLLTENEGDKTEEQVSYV
Adrenergic alpha2A, sequence (P08913 whole entry): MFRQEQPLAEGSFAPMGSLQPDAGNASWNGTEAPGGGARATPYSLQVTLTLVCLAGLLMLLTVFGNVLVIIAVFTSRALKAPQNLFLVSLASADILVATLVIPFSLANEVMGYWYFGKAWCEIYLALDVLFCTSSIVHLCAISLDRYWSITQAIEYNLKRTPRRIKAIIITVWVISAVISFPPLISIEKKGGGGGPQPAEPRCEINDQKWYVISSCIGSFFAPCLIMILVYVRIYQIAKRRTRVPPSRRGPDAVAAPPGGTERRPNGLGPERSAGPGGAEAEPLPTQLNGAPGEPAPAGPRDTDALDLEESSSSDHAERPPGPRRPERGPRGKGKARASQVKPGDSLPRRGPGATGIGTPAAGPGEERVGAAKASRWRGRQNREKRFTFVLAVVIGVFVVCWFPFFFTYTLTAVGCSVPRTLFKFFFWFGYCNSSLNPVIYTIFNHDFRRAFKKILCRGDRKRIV
Adrenergic alpha2B, sequence (P18089 whole entry): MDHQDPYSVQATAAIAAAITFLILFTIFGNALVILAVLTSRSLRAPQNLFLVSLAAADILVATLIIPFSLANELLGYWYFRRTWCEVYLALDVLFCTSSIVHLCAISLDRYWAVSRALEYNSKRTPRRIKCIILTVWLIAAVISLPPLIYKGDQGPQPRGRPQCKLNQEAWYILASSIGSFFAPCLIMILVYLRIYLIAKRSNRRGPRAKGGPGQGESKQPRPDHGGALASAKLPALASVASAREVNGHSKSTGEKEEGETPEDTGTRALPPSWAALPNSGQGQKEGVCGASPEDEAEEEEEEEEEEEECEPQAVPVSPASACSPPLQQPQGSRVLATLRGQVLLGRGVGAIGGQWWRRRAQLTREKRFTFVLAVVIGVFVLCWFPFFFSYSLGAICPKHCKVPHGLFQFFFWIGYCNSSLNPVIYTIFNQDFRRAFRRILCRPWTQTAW
Dopamine D2, sequence (P14416 whole entry): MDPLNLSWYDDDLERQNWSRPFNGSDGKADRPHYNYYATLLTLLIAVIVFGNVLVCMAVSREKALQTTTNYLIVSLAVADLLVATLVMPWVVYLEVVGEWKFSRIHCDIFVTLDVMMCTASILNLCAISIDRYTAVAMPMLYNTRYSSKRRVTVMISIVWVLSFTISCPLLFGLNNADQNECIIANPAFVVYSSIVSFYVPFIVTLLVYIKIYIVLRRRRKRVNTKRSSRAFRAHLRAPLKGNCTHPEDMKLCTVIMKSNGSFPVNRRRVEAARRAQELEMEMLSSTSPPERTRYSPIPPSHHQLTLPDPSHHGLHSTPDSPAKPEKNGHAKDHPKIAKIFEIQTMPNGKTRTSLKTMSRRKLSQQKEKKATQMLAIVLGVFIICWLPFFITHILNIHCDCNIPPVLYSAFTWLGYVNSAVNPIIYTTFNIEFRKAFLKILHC
Adrenergic alpha2C, sequence (P18825 whole entry): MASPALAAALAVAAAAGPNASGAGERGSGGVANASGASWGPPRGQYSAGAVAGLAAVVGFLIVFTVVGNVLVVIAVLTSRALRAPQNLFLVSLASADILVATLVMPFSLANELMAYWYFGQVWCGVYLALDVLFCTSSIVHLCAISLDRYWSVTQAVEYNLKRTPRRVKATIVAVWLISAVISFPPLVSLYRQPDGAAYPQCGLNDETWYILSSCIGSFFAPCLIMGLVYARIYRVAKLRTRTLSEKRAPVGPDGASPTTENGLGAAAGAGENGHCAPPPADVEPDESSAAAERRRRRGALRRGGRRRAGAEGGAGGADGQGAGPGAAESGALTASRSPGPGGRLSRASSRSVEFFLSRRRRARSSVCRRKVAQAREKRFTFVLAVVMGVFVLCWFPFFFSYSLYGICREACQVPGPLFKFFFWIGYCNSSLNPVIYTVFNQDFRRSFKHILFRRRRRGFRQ
recombinant 5-HT2C receptor (human), sequence (P28335 whole entry, looked up): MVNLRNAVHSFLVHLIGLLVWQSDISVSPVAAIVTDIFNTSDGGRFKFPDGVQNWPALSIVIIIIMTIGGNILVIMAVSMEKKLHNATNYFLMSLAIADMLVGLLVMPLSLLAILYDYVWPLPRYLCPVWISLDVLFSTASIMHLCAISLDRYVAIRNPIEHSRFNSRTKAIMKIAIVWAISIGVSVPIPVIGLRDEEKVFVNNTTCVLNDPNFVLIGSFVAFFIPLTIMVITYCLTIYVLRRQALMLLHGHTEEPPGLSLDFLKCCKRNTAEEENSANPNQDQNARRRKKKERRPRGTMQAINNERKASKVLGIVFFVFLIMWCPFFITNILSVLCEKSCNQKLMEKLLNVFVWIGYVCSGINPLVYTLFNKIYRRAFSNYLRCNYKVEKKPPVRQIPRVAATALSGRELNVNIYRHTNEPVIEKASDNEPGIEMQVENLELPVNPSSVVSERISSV

Cc1ccc2c(c1)Oc1sc(Cl)cc1C(N1CCN(CC(C)(C)C(=O)O)CC1)=N2 [Example 3, 3-[4-(2-chloro-8-methyl-thieno[2,3-b][1,5]benzoxazepin-4-yl)piperazin-1-yl]-2,2-dimethyl-propanoic acid dihydrochloride]
EC50 (5-HT2B [1]): > 10 µM | ED50 (5-HT2A Receptor [2]): 0.09 mg/kg | Ki (Adrenergic alpha2B): > 5.76 µM | Ki (Dopamine D2): > 4.57 µM | IC50 (native GABAA receptors): > 100 µM | Ki (Adrenergic alpha2C): > 4.23 µM | Ki [3]: 328 nM | Kb (5-HT2B [4]): 78.6 nM | Rebound Insomnia, Adj. Mean (Wistar rats; 0.025 mg/kg PO): 1.4 min | REM inhibition, Adj. Mean (Wistar rats; 0.025 mg/kg PO): 0.5 min | Average Sleep Bout, Adj. Mean (Wistar rats; 0.025 mg/kg PO): 1.2 n-fold increase over vehicle controls | Longest Sleep Bout, Adj. Mean (Wistar rats; 0.025 mg/kg PO): 1.1 n-fold increase over vehicle controls | Cumulative NREM sleep, Adj. Mean (Wistar rats; 0.025 mg/kg PO): 6.5 min | Cumulative Total sleep, Adj. Mean (Wistar rats; 0.025 mg/kg PO): 7.7 min | Locomotor Activity Intensity, Adj. Mean (Wistar rats; 0.025 mg/kg PO): 0.2 LMA counts per minute of EEG-defined wakefulness | Rebound Insomnia, Adj. Mean (Wistar rats; 0.035 mg/kg PO): 1.3 min | REM inhibition, Adj. Mean (Wistar rats; 0.035 mg/kg PO): -1.8 min | Average Sleep Bout, Adj. Mean (Wistar rats; 0.035 mg/kg PO): 1.3 n-fold increase over vehicle controls | Longest Sleep Bout, Adj. Mean (Wistar rats; 0.035 mg/kg PO): 1.1 n-fold increase over vehicle controls | Cumulative NREM sleep, Adj. Mean (Wistar rats; 0.035 mg/kg PO): 19.2 min | Cumulative Total sleep, Adj. Mean (Wistar rats; 0.035 mg/kg PO): 18.9 min | Locomotor Activity Intensity, Adj. Mean (Wistar rats; 0.035 mg/kg PO): 0.2 LMA counts per minute of EEG-defined wakefulness | Rebound Insomnia, Adj. Mean (Wistar rats; 0.05 mg/kg PO): 0.2 min | REM inhibition, Adj. Mean (Wistar rats; 0.05 mg/kg PO): 4.2 min | Average Sleep Bout, Adj. Mean (Wistar rats; 0.05 mg/kg PO): 1.6 n-fold increase over vehicle controls | Longest Sleep Bout, Adj. Mean (Wistar rats; 0.05 mg/kg PO): 1.4 n-fold increase over vehicle controls | Cumulative NREM sleep, Adj. Mean (Wistar rats; 0.05 mg/kg PO): 23.4 min | Cumulative Total sleep, Adj. Mean (Wistar rats; 0.05 mg/kg PO): 25.3 min | Locomotor Activity Intensity, Adj. Mean (Wistar rats; 0.05 mg/kg PO): −0.3 LMA counts per minute of EEG-defined wakefulness | Rebound Insomnia, Adj. Mean (Wistar rats; 0.1 mg/kg PO): -3.7 min | REM inhibition, Adj. Mean (Wistar rats; 0.1 mg/kg PO): 4.9 min | Average Sleep Bout, Adj. Mean (Wistar rats; 0.1 mg/kg PO): 1.7 n-fold increase over vehicle controls | Longest Sleep Bout, Adj. Mean (Wistar rats; 0.1 mg/kg PO): 1.5 n-fold increase over vehicle controls | Cumulative NREM sleep, Adj. Mean (Wistar rats; 0.1 mg/kg PO): 26.7 min | Cumulative Total sleep, Adj. Mean (Wistar rats; 0.1 mg/kg PO): 28.7 min | Locomotor Activity Intensity, Adj. Mean (Wistar rats; 0.1 mg/kg PO): 0.1 LMA counts per minute of EEG-defined wakefulness | Rebound Insomnia, Adj. Mean (Wistar rats; 0.25 mg/kg PO): -2.2 min | REM inhibition, Adj. Mean (Wistar rats; 0.25 mg/kg PO): 2.0 min | Average Sleep Bout, Adj. Mean (Wistar rats; 0.25 mg/kg PO): 2.1 n-fold increase over vehicle controls | Longest Sleep Bout, Adj. Mean (Wistar rats; 0.25 mg/kg PO): 2.0 n-fold increase over vehicle controls | Cumulative NREM sleep, Adj. Mean (Wistar rats; 0.25 mg/kg PO): 37.9 min | Cumulative Total sleep, Adj. Mean (Wistar rats; 0.25 mg/kg PO): 38.9 min | Locomotor Activity Intensity, Adj. Mean (Wistar rats; 0.25 mg/kg PO): −0.7 LMA counts per minute of EEG-defined wakefulness | Rebound Insomnia, Adj. Mean (Wistar rats; 0.5 mg/kg PO): -5.0 min | REM inhibition, Adj. Mean (Wistar rats; 0.5 mg/kg PO): 0.4 min | Average Sleep Bout, Adj. Mean (Wistar rats; 0.5 mg/kg PO): 1.8 n-fold increase over vehicle controls | Longest Sleep Bout, Adj. Mean (Wistar rats; 0.5 mg/kg PO): 2.2 n-fold increase over vehicle controls | Cumulative NREM sleep, Adj. Mean (Wistar rats; 0.5 mg/kg PO): 32.9 min | Cumulative Total sleep, Adj. Mean (Wistar rats; 0.5 mg/kg PO): 30.9 min | Locomotor Activity Intensity, Adj. Mean (Wistar rats; 0.5 mg/kg PO): 0.6 LMA counts per minute of EEG-defined wakefulness | Rebound Insomnia, Adj. Mean (Wistar rats; 1 mg/kg PO): 1.6 min | REM inhibition, Adj. Mean (Wistar rats; 1 mg/kg PO): -0.1 min | Average Sleep Bout, Adj. Mean (Wistar rats; 1 mg/kg PO): 1.7 n-fold increase over vehicle controls | Longest Sleep Bout, Adj. Mean (Wistar rats; 1 mg/kg PO): 2.0 n-fold increase over vehicle controls | Cumulative NREM sleep, Adj. Mean (Wistar rats; 1 mg/kg PO): 34.0 min | Cumulative Total sleep, Adj. Mean (Wistar rats; 1 mg/kg PO): 33.6 min | Locomotor Activity Intensity, Adj. Mean (Wistar rats; 1 mg/kg PO): −1.6 LMA counts per minute of EEG-defined wakefulness | Rebound Insomnia, Adj. Mean (Wistar rats; 3 mg/kg PO): 0.3 min | REM inhibition, Adj. Mean (Wistar rats; 3 mg/kg PO): -4.6 min | Average Sleep Bout, Adj. Mean (Wistar rats; 3 mg/kg PO): 2.0 n-fold increase over vehicle controls | Longest Sleep Bout, Adj. Mean (Wistar rats; 3 mg/kg PO): 2.7 n-fold increase over vehicle controls | Cumulative NREM sleep, Adj. Mean (Wistar rats; 3 mg/kg PO): 31.7 min | Cumulative Total sleep, Adj. Mean (Wistar rats; 3 mg/kg PO): 29.7 min | Locomotor Activity Intensity, Adj. Mean (Wistar rats; 3 mg/kg PO): −3.1 LMA counts per minute of EEG-defined wakefulness | Rebound Insomnia, Adj. Mean (Wistar rats; 10 mg/kg PO): -3.1 min | REM inhibition, Adj. Mean (Wistar rats; 10 mg/kg PO): -9.4 min | Average Sleep Bout, Adj. Mean (Wistar rats; 10 mg/kg PO): 2.0 n-fold increase over vehicle controls | Longest Sleep Bout, Adj. Mean (Wistar rats; 10 mg/kg PO): 2.3 n-fold increase over vehicle controls | Cumulative NREM sleep, Adj. Mean (Wistar rats; 10 mg/kg PO): 29.1 min | Cumulative Total sleep, Adj. Mean (Wistar rats; 10 mg/kg PO): 26.5 min | Locomotor Activity Intensity, Adj. Mean (Wistar rats; 10 mg/kg PO): −1.9 LMA counts per minute of EEG-defined wakefulness | change in awake time following treatment (dose response curve, FIG. 2) (Wistar rats; rat): does not result in rebound insomnia | change in cumulative REM sleep time (dose response curve, FIG. 1) (Wistar rats; rat): does not inhibit REM sleep | change in distances moved during periods of wakefulness (dose response curve, FIG. 3) (Wistar rats; rat): does not inhibit or stimulate normal activity | Estimated efficacy dose, NREM accumulation = 30 min. (Wistar rats; [6]): 0.09 mg/kg | Estimated efficacy dose, average sleep bout (1.5-fold increase) (Wistar rats; [6]): 0.04 mg/kg | Estimated efficacy dose, longest sleep bout (1.75-fold increase) (Wistar rats; [6]): 0.12 mg/kg | Estimated efficacy dose, total sleep accumulation = 25 min. (Wistar rats; [6]): 0.05 mg/kg | REM sleep inhibition (Wistar rats; rat, at 3 mg/kg): without significant | cumulative NREM sleep time (Wistar rats; rat, at 3 mg/kg): significantly increase | cumulative total sleep time (Wistar rats; rat, at 3 mg/kg): significantly increase | inhibition of locomotor intensity (LMI) (Wistar rats; rat, at 3 mg/kg): without significant | rebound insomnia (Wistar rats; rat, at 3 mg/kg): without significant rebound insomnia | NREM sleep (Wistar rats; rat, coadministered with citalopram): significantly increase NREM sleep at significantly lower doses | Ki (Adrenergic alpha2A): > 8.99 µM | inhibition at 10 mg/kg (5-HT2A receptor [5]): 100%
